This passage reports inhibition in vivo, Activity and MPE results from ChEMBL document CHEMBL3045065, “Synthesis and analgesic effects of 2-(2-carboxyphenylsulfanyl)-N-(4-substitutedphenyl)acetamide derivatives” (Med Chem Res, 2011).

The test system of data set [1] is Mus musculus. The data set is described as follows: Analgesic activity in Mus musculus Swiss albino (mouse) assessed as inhibition of acetic acid-induced writhing at 100 mg/kg, ip measured after 30 min relative to control. Format: functional. The conditions noted are these: 0.5 h, route intraperitoneal. On the technique in general: An intraperitoneal irritant provokes the stretching counted in writhing tests.

Data set [2] has as its system Mus musculus. The data set is described as follows: Neurotoxicity in Mus musculus Swiss albino (mouse) assessed as falling latency at 100 mg/kg, ip by Rota-Rod test. The data set is classed as toxicity, organism-based. Further details: dose 100 mg/kg, route intraperitoneal. Conditions: in vivo.
The subject of data set [3] is Mus musculus. The data set is described as follows: Analgesic activity in Mus musculus Swiss albino (mouse) at 100 mg/kg, ip measured after 30 min by tail clip test. The data set is classed as functional. Conditions: route intraperitoneal.
Data set [4] relates to Mus musculus. The data set is described as follows: Toxicity in Mus musculus Swiss albino (mouse) assessed as mortality at 100 mg/kg, ip. The data set is classed as organism-based. The conditions noted are these: in vivo. Also on record: dose 100 mg/kg, route intraperitoneal.
Data set [5] concerns Mus musculus. The data set is described as follows: Analgesic activity in Mus musculus Swiss albino (mouse) assessed as paw licking and jumping latency at 100 mg/kg, ip measured after 30 min by hot plate test. Conditions: route intraperitoneal. Format: functional.
Data set [6] has as its system Mus musculus. The data set is described as follows: Neurotoxicity in Mus musculus Swiss albino (mouse) assessed as effect on vertical locomotory activity at 100 mg/kg, ip. Format: toxicity, organism-based. Conditions: in vivo. Also on record: dose 100 mg/kg, route intraperitoneal.
Data set [7] relates to Mus musculus. Nature of the data set: Neurotoxicity in Mus musculus Swiss albino (mouse) assessed as effect on horizontal locomotory activity at 100 mg/kg, ip. Format: toxicity, organism-based. Further details: dose 100 mg/kg, route intraperitoneal. Conditions: in vivo.

Molecules are shown by their SMILES.

The inhibition in vivo is the share of the control response that was lost under treatment. On to `O=C(CSc1ccccc1C(=O)O)Nc1ccc(Br)cc1`, for which the inhibition in vivo at 100 mg/kg with Mus musculus [1] was 9.04%. Besides, the Activity result with Mus musculus [2] is on record as “Non-toxic”; with Mus musculus [4] it was “Non-toxic”; in the data set on Mus musculus [5], 8.48%; with Mus musculus [6] it was “Non-toxic”; with Mus musculus [7] it was “Non-toxic”. Moreover, the MPE in the data set on Mus musculus [3] was 13.71%.
In the case of `COc1ccc(NC(=O)CSc2ccccc2C(=O)O)cc1`, the inhibition in vivo at 100 mg/kg in the data set on Mus musculus [1] is 27.7%. Besides, the Activity result in the data set with Mus musculus [2] is “Non-toxic”; in the data set with Mus musculus [4], “Non-toxic”; in the data set with Mus musculus [5], 35.12%; in the data set on Mus musculus [6], “Non-toxic”; in the data set with Mus musculus [7], “Non-toxic”. This compound yielded an MPE in the data set with Mus musculus [3] of 25.01%.
With `O=C(CSc1ccccc1C(=O)O)Nc1ccc(C(=O)O)cc1`, in the data set on Mus musculus [1], the inhibition in vivo at 100 mg/kg stood at 20.3%. For the same compound, the Activity result was “Non-toxic” in the data set with Mus musculus [2]; “Non-toxic” in the data set with Mus musculus [4]; 18.07% with Mus musculus [5]; “Non-toxic” with Mus musculus [6]; “Non-toxic” in the data set with Mus musculus [7]. The compound also yielded an MPE in the data set with Mus musculus [3] of 17.05%.
With `O=C(O)c1ccccc1S` [THIOSALICYLIC ACID], the inhibition in vivo at 100 mg/kg in the data set with Mus musculus [1] turned out to be 33.9%. Besides, the Activity result in the data set with Mus musculus [2] is given as “Non-toxic”; in the data set with Mus musculus [4] it was “Non-toxic”; in the data set with Mus musculus [5], 62.49%; in the data set on Mus musculus [6] it was “Non-toxic”; in the data set with Mus musculus [7] it was “Non-toxic”. For the same compound, in the data set on Mus musculus [3], the MPE is given as 40.37%.
For `Cc1ccc(NC(=O)CSc2ccccc2C(=O)O)cc1`, in the data set with Mus musculus [1], the inhibition in vivo at 100 mg/kg was determined as 76.3%. For the same compound, the Activity entry is recorded as “Non-toxic” in the data set on Mus musculus [2]; “Non-toxic” with Mus musculus [4]; 89.37% with Mus musculus [5]; “Non-toxic” in the data set with Mus musculus [6]; “Non-toxic” with Mus musculus [7]. Besides, the MPE in the data set on Mus musculus [3] is on record as 72.31%.
With `O=C(CSc1ccccc1C(=O)O)Nc1ccc(Cl)cc1`, in the data set on Mus musculus [1], the inhibition in vivo at 100 mg/kg is 49.7%. The Activity entry in the data set on Mus musculus [2] is recorded as “Non-toxic”; in the data set with Mus musculus [4] it was “Non-toxic”; with Mus musculus [5], 65.73%; with Mus musculus [6], “Non-toxic”; with Mus musculus [7], “Non-toxic”. Moreover, the MPE with Mus musculus [3] is 43.94%.
Regarding `O=C(CSc1ccccc1C(=O)O)Nc1ccccc1`, the inhibition in vivo at 100 mg/kg in the data set with Mus musculus [1] was determined as 54.8%. The Activity result in the data set with Mus musculus [2] was “Non-toxic”; in the data set on Mus musculus [4] it was “Non-toxic”; in the data set on Mus musculus [5] it was 79.98%; with Mus musculus [6] it was “Non-toxic”; in the data set on Mus musculus [7], “Non-toxic”. This compound also showed an MPE with Mus musculus [3] of 52.1%.
For `CC(=O)Nc1ccc(O)cc1` [ACETAMINOPHEN], the inhibition in vivo at 100 mg/kg in the data set with Mus musculus [1] was 29.4%. Further, the Activity entry in the data set with Mus musculus [2] was “Non-toxic”; in the data set with Mus musculus [4] it was “Non-toxic”; in the data set with Mus musculus [5] it was 51.61%; in the data set with Mus musculus [6] it was “Non-toxic”; in the data set on Mus musculus [7], “Non-toxic”.
